One assay concerns Aspergillus niger. The experiment in a line: Antifungal activity against Aspergillus niger after 24 hrs. In kind it is functional.
In another assay the test system is KB. Description: Cytotoxicity against human KB cells after 72 hrs by spectrophotometric method. In kind it is functional, cell-based.

Structures are written as SMILES. Converted amounts (≈) assume the structure as drawn. The source made the active and inactive calls. No cut-off for these calls is given here.

We go through four compounds from ChEMBL document CHEMBL1150816, “Bioactive constituents of the roots of Licania intrapetiolaris” (J Nat Prod, 2001).

As for `C[C@@H]1[C@H](O)[C@@H](C)/C=C/C=C/C=C/C=C/C=C/C=C/C=C/[C@H](O[C@@H]2O[C@H](C)[C@@H](O)[C@H](N)[C@@H]2O)C[C@@H]2O[C@](O)(C[C@@H](O)C[C@@H](O)[C@H](O)CC[C@@H](O)C[C@@H](O)CC(=O)O[C@H]1C)C[C@H](O)[C@H]2C(=O)O` [AMPHOTERICIN B], the “inhibition zone (IZ)” value in the assay with Aspergillus niger is 18 mm.
As usually defined, the EC50 is the concentration giving half of the maximal effect. The low end stands for higher potency in that assay, the high end for lower potency in that assay. As for `CC(=O)OC(C)(C)/C=C/C(=O)[C@](C)(O)[C@H]1[C@H](O)C[C@@]2(C)[C@@H]3CC=C4[C@H](C[C@H](O)C(=O)C4(C)C)[C@]3(C)C(=O)C[C@]12C` [CUCURBITACIN B], the concentration for a half-maximal effect (EC50) with KB stood at 0.008 µg/mL (≈ 0.0143 µM).
In the case of `C=CC(=C)CC[C@]1(C)[C@H](C)C[C@H](O)[C@@]23C(=C[C@@H](OC(=O)c4ccc(O)cc4)C[C@@H]12)[C@@H](OC)O[C@H]3OC(C)=O` [INTRAPETACIN A], the EC50 in the assay with KB turned out to be 2 µg/mL (≈ 3.8 µM). The “inhibition zone (IZ)” value in the assay with Aspergillus niger is “inactive”.
For `C=CC(=C)CC[C@]1(C)[C@H](C)C[C@H](O)[C@@]23C(=C[C@@H](OC(=O)c4ccc(O)cc4)C[C@@H]12)[C@@H](OC(C)=O)O[C@H]3OC(C)=O` [INTRAPETACIN B] the same measures were 0.8 µg/mL (≈ 1.44 µM) and 21 mm.
